Tested on: T1, MeHFT
T1 construct: ~71 kDa on gel), E. coli BL21(DE3), Ni-NTA; primers encode N-terminus MGAEEV and C-terminus EEAIKL; cDNA 1413 nt from transcriptome SRP078649
Test: HPLC of alkyl ferulate product, UV […] nm, Michaelis-Menten fit
Format: biochemical, Marchantia emarginata
Settings: 0.1 M Tris-HCl pH 7.5, 40 °C, 10 min

Km (acyl donor varied, 0.1 mM 1-decanol) [µM] | Km (acyl acceptor varied, 0.1 mM feruloyl-CoA) [µM] | SMILES
79.4 ± 10.9 |  | COc1cc(/C=C/C(=O)SCCNC(=O)CCNC(=O)[C@H](O)C(C)(C)COP(=O)(O)OP(=O)(O)OC[C@H]2O[C@@H](n3cnc4c(N)ncnc43)[C@H](O)[C@@H]2OP(=O)(O)O)ccc1O [Feruloyl-CoA]
 | 65.5 ± 11.2 | CCCCCCCCCCO [1-Decanol]

Reference: article PMC6150198, “Functional Characterization of a Hydroxyacid/Alcohol Hydroxycinnamoyl Transferase Produced by the Liverwort Marchantia emarginata” (Molecules : A Journal of Synthetic Chemistry and Natural …, 2017)
